Test results: patent US12281363B2, “Methods for detecting antiviral-drug resistant virus” (Secretary of State for Health and Social Care, priority 2018, dated 2025)
Read-outs that look alike come from different tables or passages of the source.

System: HSV-1
Assay: Plaque reduction assay, HSV-1 clinical isolates on Vero cells
Format: cell-based
Conditions: Human alphaherpesvirus 1, Vero
Text: Viral isolates were used to infect a sub-confluent monolayer of Vero cells at a concentration of 75 or 50 plaque forming units (PFU) per well for HSV-1 and HSV-2, respectively. […] CMC medium typically used to create a semisolid interface and prevents indiscrimate viral spreading. Other materials (e.g. agar) may also be used to create this interface.
Cells were fixed with 10% formalin and stained with crystal violet before enumeration of the plaques (microscopic observation or use of fluorescent antibodies for detection is also suitable). The data obtained from these experiments were then expressed as percent inhibition of viral infectivity relative to the no drug control.
Definitions of phenotypic drug susceptibility classification as sensitive or resistant were as follows: ACV, <3 μM or >40 μM; PCV, <10 μM or >40 μM; CDV, <24 μM or >30 μM; FOS, <250 μM or >400 μM; and ACV, <6.5 μM or >40 μM; PCV, <38 μM or >40 μM; FOS, <250 μM or >400 μM for HSV-1 and HSV-2, respectively. Any IC50 values falling in between these sensitive and resistant cut-offs were reported as intermediate resistance.
The phenotype (i.e. reactivity to a drug) of the virus was characterised by the plaque reduction assay as described above.

Measured: IC50

Nc1nc2c(ncn2COCCO)c(=O)[nH]1 [Aciclovir, acyclovir]
< 3 µM: read-out: Drug susceptibility Aciclovir (ACV), isolate HPG005, HSV-1 TK A37V (110C>T) | read-out: Drug susceptibility Aciclovir (ACV), isolate HPG005, HSV-1 TK A192T (574G>A) | read-out: Drug susceptibility Aciclovir (ACV), isolate HPG009, HSV-1 pol E992K (2974G>A), also pol A1169T | read-out: Drug susceptibility Aciclovir (ACV), isolate HPG014, HSV-1 pol A1115T (3343G>A) | read-out: Drug susceptibility Aciclovir (ACV), isolate HPG014, HSV-1 pol R993C (2977C>T) | read-out: Drug susceptibility Aciclovir (ACV), isolate HPG014, HSV-1 pol T54A (160A>G) | read-out: Drug susceptibility Aciclovir (ACV), isolate HPG015, HSV-1 pol 966stop or F965_I966insF (2892_2893insT to 2895_2896insT) | read-out: Drug susceptibility Aciclovir (ACV), isolate HPG016, HSV-1 pol A1169T (3505G>A) | read-out: Drug susceptibility Aciclovir (ACV), isolate HPG020, HSV-1 pol S911N (2732G>A), also pol A1169T | read-out: Drug susceptibility Aciclovir (ACV), isolate HPG041, HSV-1 pol S911N (2732G>A), also pol A1169T
> 40 µM: read-out: Drug susceptibility Aciclovir (ACV), isolate HPG006, HSV-1 pol G121S (361G>A), also a TK resistance mutation (footnote a) | read-out: Drug susceptibility Aciclovir (ACV), isolate HPG012, HSV-1 pol G985E (2954G>A), also TK A93V | read-out: Drug susceptibility Aciclovir (ACV), isolate HPG019, HSV-1 pol K750T (2249A>C), also TK deletion (G) nt 430-436, pol A1169T | read-out: Drug susceptibility Aciclovir (ACV), isolate HPG021, HSV-1 pol R681Q (2042G>A), also TK deletion (G) nt 430-436 | read-out: Drug susceptibility Aciclovir (ACV), isolate HPG021, HSV-1 pol T839A (2515A>G), also TK deletion (G) nt 430-436 | read-out: Drug susceptibility Aciclovir (ACV), isolate HPG027, HSV-1 TK V204G (611T>G), also pol S914L, A1169AT | read-out: Drug susceptibility Aciclovir (ACV), isolate HPG027, HSV-1 pol S914L (2741C>T), also TK V204G, pol A1169T | read-out: Drug susceptibility Aciclovir (ACV), isolate HPG029, HSV-1 TK Y172S (515A>C) | read-out: Drug susceptibility Aciclovir (ACV), isolate HPG040, HSV-1 pol S911N (2732G>A), also TK deletion (C) nt 896-900, pol A1169T | read-out: Drug susceptibility Aciclovir (ACV), isolate HPG042, HSV-1 pol A972V (2915C>T), also TK deletion (C) nt 881-885, pol A1169T | read-out: Drug susceptibility Aciclovir (ACV), isolate HPG042, HSV-1 pol G22R (64G>A), also TK deletion (C) nt 881-885, pol A1169T | read-out: Drug susceptibility Aciclovir (ACV), isolate HPG050, HSV-1 TK Q34* (100C>T) | read-out: Drug susceptibility Aciclovir (ACV), isolate HPG053, HSV-1 pol L802R + A834S (2405T>G, 2500G>T), also TK R176W | read-out: Drug susceptibility Aciclovir (ACV), isolate HPG053, HSV-1 pol S911N (2732G>A), also TK R176W, pol A1169T
3 to 40 µM: read-out: Drug susceptibility Aciclovir (ACV), isolate HPG002, HSV-1 pol E992K (2974G>A), also TK insert (G) nt 430-436, pol A1169T | read-out: Drug susceptibility Aciclovir (ACV), isolate HPG003, HSV-1 TK Y172S (515A>C) | read-out: Drug susceptibility Aciclovir (ACV), isolate HPG008, HSV-1 TK V204G (611T>G) | read-out: Drug susceptibility Aciclovir (ACV), isolate HPG010, HSV-1 TK Q125* (373C>T) | read-out: Drug susceptibility Aciclovir (ACV), isolate HPG011, HSV-1 TK Q125* (373C>T) | read-out: Drug susceptibility Aciclovir (ACV), isolate HPG013, HSV-1 TK M121I (363G>A) | read-out: Drug susceptibility Aciclovir (ACV), isolate HPG013, HSV-1 pol D83A (248A>C), also TK M121I, pol A1169T | read-out: Drug susceptibility Aciclovir (ACV), isolate HPG018, HSV-1 TK frameshift (881delC to 885delC) | read-out: Drug susceptibility Aciclovir (ACV), isolate HPG018, HSV-1 pol P1199T (3595C>A), also TK deletion (C) nt 881-885, pol A1169T | read-out: Drug susceptibility Aciclovir (ACV), isolate HPG025, HSV-1 pol E850Q (2548G>C), also TK R216C | read-out: Drug susceptibility Aciclovir (ACV), isolate HPG026, HSV-1 pol E850Q (2548G>C), also TK R216C, pol A1169T | read-out: Drug susceptibility Aciclovir (ACV), isolate HPG031, HSV-1 pol E1120A (3359A>C), also a TK resistance mutation (footnote e) | read-out: Drug susceptibility Aciclovir (ACV), isolate HPG031, HSV-1 pol G139R (415G>C or 415G>A), also a TK resistance mutation (footnote e) | read-out: Drug susceptibility Aciclovir (ACV), isolate HPG032, HSV-1 TK 183* (437_438insA) | read-out: Drug susceptibility Aciclovir (ACV), isolate HPG033, HSV-1 TK I358L (1072A>C), also TK T287M | read-out: Drug susceptibility Aciclovir (ACV), isolate HPG033, HSV-1 pol N1046T (3137A>C), also TK T287M, pol A1169T | read-out: Drug susceptibility Aciclovir (ACV), isolate HPG035, HSV-1 pol S239L (716C>T), also pol S724N | read-out: Drug susceptibility Aciclovir (ACV), isolate HPG037, HSV-1 TK L69M (205>A), also TK Y239H | read-out: Drug susceptibility Aciclovir (ACV), isolate HPG037, HSV-1 TK R256W (766C>T) | read-out: Drug susceptibility Aciclovir (ACV), isolate HPG037, HSV-1 TK Y239H (715T>C) | read-out: Drug susceptibility Aciclovir (ACV), isolate HPG039, HSV-1 TK 85* or H58fs (169delC, 170delC, 171delC, or 172delC) | read-out: Drug susceptibility Aciclovir (ACV), isolate HPG042, HSV-1 TK frameshift (881delC to 885delC) | read-out: Drug susceptibility Aciclovir (ACV), isolate HPG043, HSV-1 TK 183* (437_438insA) | read-out: Drug susceptibility Aciclovir (ACV), isolate HPG045, HSV-1 TK L49R (146T>G) | read-out: Drug susceptibility Aciclovir (ACV), isolate HPG045, HSV-1 pol L419I (1255C>A), also TK L49R, pol A1169T | read-out: Drug susceptibility Aciclovir (ACV), isolate HPG046, HSV-1 TK I166N (497T>A) | read-out: Drug susceptibility Aciclovir (ACV), isolate HPG047, HSV-1 pol E680 (2039A>C), also TK deletion (C) nt 548-553, pol A1169T | read-out: Drug susceptibility Aciclovir (ACV), isolate HPG051, HSV-1 pol D83A (248A>C), also TK R176stop | read-out: Drug susceptibility Aciclovir (ACV), isolate HPG052, HSV-1 TK Q34* (100C>T) | read-out: Drug susceptibility Aciclovir (ACV), isolate HPG054, HSV-1 pol E992K (2974G>A), also TK insert (G) nt 430-436, pol A1169T | read-out: Drug susceptibility Aciclovir (ACV), isolate HPG055, HSV-1 TK V204G (611T>G), also pol A1169AT
